For 28 molecules, melting point and IC50 results are on record in patent publication US8735414B2 (priority 2009, dated 2014).

The test system of series [1] is bicistronic HCV replicon (replicon RNA, GenBank Accession No. AJ242654). As to the kind of experiment: HCV Replicon Assay. In kind it is cell-based. Particulars: Hepatitis C virus, 72 h, read-out: Replicon IC50.

In general, melting point refers to the temperature, or range, at which the solid turns liquid. For orientation: IC50 means the concentration that inhibits the measured activity by half. In turn, `CCn1c(-c2ncc(S(=O)(=O)NC(C)C)cn2)c(C#N)c2cc(OC(F)F)ccc21` [compound 242, 2-[3-cyano-5-(difluoromethoxy)-1-ethyl-1H-indol-2-yl]-N-(propan-2-yl)pyrimidine-5-sulfonamide] displayed a melting point of 180 to 185 °C. Besides, the IC50 in series [1] fell in the range of 0.5 to 2 µM.
`N#Cc1c(-c2ccc(S(=O)(=O)NC3CC(F)(F)C3)cn2)n(C2CCC2)c2cc(Cl)ccc12` [compound 244, 6-(6-chloro-3-cyano-1-cyclobutyl-1H-indol-2-yl)-N-(3,3-difluorocyclobutyl)pyridine-3-sulfonamide] showed a melting point of 135 to 138 °C. For the same molecule, the IC50 in series [1] is 2 to 5 µM.
The like results for `Cc1ccc2c(C#N)c(-c3ccc(S(=O)(=O)NC4CC(F)(F)C4)cn3)n(C3CCC3)c2c1` [compound 245, 6-(3-cyano-1-cyclobutyl-6-methyl-1H-indol-2-yl)-N-(3,3-difluorocyclobutyl)pyridine-3-sulfonamide] were, in that order, 165 to 166 °C and less than 0.5 µM.
Regarding `N#Cc1c(-c2ccc(S(=O)(=O)NC3CC(F)(F)C3)cn2)n(C2CCC2)c2cc(C3CC3)ccc12` [compound 247, 6-(3-cyano-1-cyclobutyl-6-cyclopropyl-1H-indol-2-yl)-N-(3,3-difluorocyclobutyl)pyridine-3-sulfonamide], the melting point lay within 176 to 178 °C. Further, the IC50 in series [1] was 0.5 to 2 µM.
For `Cc1ccc2c(C#N)c(-c3ccc(S(=O)(=O)NC(CF)CF)cn3)n(-c3ccccn3)c2c1` [compound 248, 6-[3-cyano-6-methyl-1-(pyridin-2-yl)-1H-indol-2-yl]-N-(1,3-difluoropropan-2-yl)pyridine-3-sulfonamide], in that order: 159 to 162 °C and less than 0.5 µM.
`N#Cc1c(-c2ccc(S(=O)(=O)NC(CF)CF)cn2)n(-c2ccccn2)c2cc(OC(F)F)ccc12` [compound 249, 6-[3-cyano-6-(difluoromethoxy)-1-(pyridin-2-yl)-1H-indol-2-yl]-N-(1,3-difluoropropan-2-yl)pyridine-3-sulfonamide] had a melting point of 186 to 190 °C. Further, in series [1], the IC50 was less than 0.5 µM.
For `C[C@H](NS(=O)(=O)c1ccc(-c2c(C#N)c3cc(F)ccc3n2C2CCCCC2)nc1)C1CC1` [compound 250, 6-(3-cyano-1-cyclohexyl-5-fluoro-1H-indol-2-yl)-N-[(1S)-1-cyclopropylethyl]pyridine-3-sulfonamide], in that order: 161 to 163 °C and less than 0.5 µM.
For the molecule `CC(C)NS(=O)(=O)c1cnc(-c2c(C#N)c3ccc(F)cc3n2C2CCCCC2)nc1` [compound 251, 2-(3-cyano-1-cyclohexyl-6-fluoro-1H-indol-2-yl)-N-(propan-2-yl)pyrimidine-5-sulfonamide], the melting point is 200 to 202 °C. In series [1], the IC50 lay in the range of 0.5 to 2 µM.
The like results for `Cc1ccc2c(C#N)c(-c3ccc(S(=O)(=O)NC4(C(F)(F)F)CCC4)cn3)n(C3CCCC3)c2c1` [compound 253, 6-(3-cyano-1-cyclopentyl-6-methyl-1H-indol-2-yl)-N-[1-(trifluoromethyl)cyclobutyl]pyridine-3-sulfonamide] were, in that order, 214 to 218 °C and less than 0.5 µM.
For `C[C@H](NS(=O)(=O)c1cnc(-c2c(C#N)c3ccc(C4CC4)cc3n2C2CCCC2)nc1)C1CC1` [compound 254, 2-(3-cyano-1-cyclopentyl-6-cyclopropyl-1H-indol-2-yl)-N-[(1S)-1-cyclopropylethyl]pyrimidine-5-sulfonamide], in that order: 185 to 189 °C and 0.5 to 2 µM.
`Cc1ccc2c(C#N)c(-c3ccc(S(=O)(=O)NC4(C(F)(F)F)CC4)cn3)n(CC3CC3)c2c1` [compound 255, 6-[3-cyano-1-(cyclopropylmethyl)-6-methyl-1H-indol-2-yl]-N-[1-(trifluoromethyl)cyclopropyl]pyridine-3-sulfonamide]: the melting point fell in the range of 191 to 195 °C. Besides, the IC50 in series [1] is less than 0.5 µM.
For `Cc1ccc2c(C#N)c(-c3ccc(S(=O)(=O)NC4(C(F)(F)F)CC4)cn3)n(C3CCC3)c2c1` [compound 256, 6-(3-cyano-1-cyclobutyl-6-methyl-1H-indol-2-yl)-N-[1-(trifluoromethyl)cyclopropyl]pyridine-3-sulfonamide], in that order: 189 to 194 °C and less than 0.5 µM.
`CCc1ccc2c(c1)c(C#N)c(-c1ccc(S(=O)(=O)NC(CF)CF)cn1)n2C1CCC1` [compound 258, 6-(3-cyano-1-cyclobutyl-5-ethyl-1H-indol-2-yl)-N-(1,3-difluoropropan-2-yl)pyridine-3-sulfonamide] registered a melting point of 163 to 164 °C. Moreover, the 50% inhibitory concentration (IC50) in series [1] is less than 0.5 µM.
In the case of `N#Cc1c(-c2ccc(S(=O)(=O)NC(CF)CF)cn2)n(-c2ccncc2)c2ccc(F)cc12` [compound 259, 6-[3-cyano-5-fluoro-1-(pyridin-4-yl)-1H-indol-2-yl]-N-(1,3-difluoropropan-2-yl)pyridine-3-sulfonamide], the melting point fell in the range of 199 to 203 °C. Besides, in series [1], the IC50 is less than 0.5 µM.
For `Cc1ccc2c(C#N)c(-c3ncc(S(=O)(=O)NC(CF)CF)cn3)n(-c3ccccc3)c2c1` [compound 260, 2-(3-cyano-6-methyl-1-phenyl-1H-indol-2-yl)-N-(1,3-difluoropropan-2-yl)pyrimidine-5-sulfonamide], in that order: 169 to 171 °C and less than 0.5 µM.
Turning to `C[C@@H](NS(=O)(=O)c1ccc(-c2c(C#N)c3cc(F)ccc3n2C2CCCCC2)nc1)C(F)(F)F` [compound 261, 6-(3-cyano-1-cyclohexyl-5-fluoro-1H-indol-2-yl)-N-[(2R)-1,1,1-trifluoropropan-2-yl]pyridine-3-sulfonamide], the melting point was 208 to 210 °C. Also, in series [1], the IC50 is less than 0.5 µM.
`C[C@H](NS(=O)(=O)c1ccc(-c2c(C#N)c3ccc(F)cc3n2C2CCCCC2)nc1)C1CC1` [compound 262, 6-(3-cyano-1-cyclohexyl-6-fluoro-1H-indol-2-yl)-N-[(1S)-1-cyclopropylethyl]pyridine-3-sulfonamide] gave a melting point of 161 to 162 °C. In addition, the IC50 in series [1] was less than 0.5 µM.
As for `C[C@H](NS(=O)(=O)c1ccc(-c2c(C#N)c3ccc(C4CCC4)cc3n2C2CCC2)nc1)C1CC1` [compound 263, 6-(3-cyano-1,6-dicyclobutyl-1H-indol-2-yl)-N-[(1S)-1-cyclopropylethyl]pyridine-3-sulfonamide], the melting point was in the range of 124 to 126 °C. For the same molecule, the half-maximal inhibitory concentration (IC50) in series [1] is less than 0.5 µM.
Consider `N#Cc1c(-c2ncc(S(=O)(=O)NC(CF)CF)cn2)n(C2CCC2)c2cc(C3CCC3)ccc12` [compound 264, 2-(3-cyano-1,6-dicyclobutyl-1H-indol-2-yl)-N-(1,3-difluoropropan-2-yl)pyrimidine-5-sulfonamide], for which the melting point lay in the range of 184 to 188 °C. Further, the IC50 in series [1] was in the range of 0.5 to 2 µM.
`CC(C)NS(=O)(=O)c1cnc(-c2c(C#N)c3ccc(C4CCC4)cc3n2C2CCC2)nc1` [compound 265, 2-(3-cyano-1,6-dicyclobutyl-1H-indol-2-yl)-N-(propan-2-yl)pyrimidine-5-sulfonamide] displayed a melting point of 192 to 194 °C. For the same molecule, the IC50 in series [1] was in the range of 0.5 to 2 µM.
The like results for `N#Cc1c(-c2ccc(S(=O)(=O)NC(CF)CF)cn2)n(C2CCC2)c2cc(CC(F)F)ccc12` [compound 267, 6-[3-cyano-1-cyclobutyl-6-(2,2-difluoroethyl)-1H-indol-2-yl]-N-(1,3-difluoropropan-2-yl)pyridine-3-sulfonamide] were, in that order, 166 to 168 °C and less than 0.5 µM.
For `CC(C)(C)S(=O)(=O)Nc1ccc(-c2c(C#N)c3ccc(Oc4ncccn4)cc3n2C2CCC2)cn1` [compound 268, N-{5-[3-cyano-1-cyclobutyl-6-(pyrimidin-2-yloxy)-1H-indol-2-yl]pyridin-2-yl}-2-methylpropane-2-sulfonamide], in that order: 275 to 277 °C and less than 0.5 µM.
For `CC(C)(C)S(=O)(=O)Nc1ccc(-c2c(C#N)c3ccc(OC(F)F)cc3n2CC2CC2)cn1` [compound 269, N-{5-[3-cyano-1-(cyclopropylmethyl)-6-(difluoromethoxy)-1H-indol-2-yl]pyridin-2-yl}-2-methylpropane-2-sulfonamide], in that order: 214 to 215 °C and 0.5 to 2 µM.
For `N#Cc1c(-c2ccc(NS(=O)(=O)C3CC3)cn2)n(CC2CC2)c2cc(OC(F)F)ccc12` [compound 270, N-{6-[3-cyano-1-(cyclopropylmethyl)-6-(difluoromethoxy)-1H-indol-2-yl]pyridin-3-yl}cyclopropanesulfonamide], the melting point was in the range of 156 to 158 °C. For the same molecule, the IC50 in series [1] was in the range of 2 to 5 µM.
`CCCS(=O)(=O)Nc1ccc(-c2c(C#N)c3ccc(Oc4ncccn4)cc3n2C2CCC2)nc1` [compound 271, N-{6-[3-cyano-1-cyclobutyl-6-(pyrimidin-2-yloxy)-1H-indol-2-yl]pyridin-3-yl}propane-1-sulfonamide] came in with a melting point of 206 to 208 °C. Further, the IC50 in series [1] was 0.5 to 2 µM.
`CCCS(=O)(=O)Nc1ccc(-c2c(C#N)c3ccc(Oc4ncccc4C#N)cc3n2C2CCC2)nc1` [compound 272, N-(6-{3-cyano-6-[(3-cyanopyridin-2-yl)oxy]-1-cyclobutyl-1H-indol-2-yl}pyridin-3-yl)propane-1-sulfonamide]: the melting point lay within 199 to 201 °C. For the same molecule, the IC50 in series [1] lay in the range of 0.5 to 2 µM.
In turn, `CCCS(=O)(=O)Nc1ccc(-c2c(C#N)c3ccc(Oc4nccnc4C#N)cc3n2C2CCC2)nc1` [compound 273, N-(6-{3-cyano-6-[(3-cyanopyrazin-2-yl)oxy]-1-cyclobutyl-1H-indol-2-yl}pyridin-3-yl)propane-1-sulfonamide] had a melting point of 252 to 254 °C. Also, the IC50 in series [1] was less than 0.5 µM.
For `CC(C)Oc1ccc2c(C#N)c(-c3ccc(NS(=O)(=O)C4CC4)nn3)n(C3CCC3)c2c1` [compound 274, N-{6-[3-cyano-1-cyclobutyl-6-(propan-2-yloxy)-1H-indol-2-yl]pyridazin-3-yl}cyclopropanesulfonamide], in that order: 175 to 177 °C and 2 to 5 µM.
